Key:
[1] = system: yeast strains with mAID tag on MCM10, SLD3 or CDC45; test: Growth of mAID-tagged yeast strains expressing OsTIR1(WT, F74G or F74A) on plates; assay type: cell-based
Source text: In order to confirm that the AID2 system functions even in yeasts, OsTIR1(WT, F74G or F74A) was introduced into a URA3 gene locus under the control of a GAL1-10 promoter (refer to FIG. 12(A)). After that, an mAID tag was attached to a gene that encodes MCM10, SLD3 or CDC45, which is an essential replication initiator.

[2] = biological target: T1, mAID-EGFP-POLD1 (Oryza sativa subsp. japonica, UniProt Q7XVM8, F74G); test: Western blotting of mAID-EGFP-POLD1 degradation in HeLa cell (transposon vector + CRISPR-KO); assay type: cell-based, human; conditions: anti-POLD1 antibody, clones #1 to #3
T1 construct: P2A linker (self-cleaving; remnant); expressed in transfected cells; host or cells: HeLa; transposon vector plus CRISPR-KO vector
Source text: (§1) In this degradation system, (1) a transposon vector in which an OsTIR1(F74G) gene and an mAID-target gene are connected by a P2A linker gene and (2) a CRISPR-KO vector for knocking out an endogenous target gene containing gRNA and a Cas9 gene are contained.
(§2) In this degradation system, the OsTIR1(F74G) gene and the mAID-target gene in a genome are integrated by the transposon vector, and an endogenous target gene is knocked out by the CRISPR-KO vector.
(§3) The transposon vector in which an OsTIR1(F74G) gene and an mAID-EGFP-CENPH or mAID-EGFP-POLD1 target gene were connected by a P2A linker gene was constructed, and this vector was introduced into a HeLa cell together with the CRISPR-KO vector targeting an endogenous CENPH or POLD1 gene. 5-Ph-IAA was added to such a cell, and the degradation of the target protein was confirmed by Western blotting (FIG. 6).

[3] = biological target: T2, OsTIR1(F74G)/mAID-EGFP-NLS expressing cell (Oryza sativa subsp. japonica, UniProt Q7XVM8, F74G); test: FACS analysis of mAID-EGFP-NLS reporter degradation in OsTIR1(F74G) expressing HCT116 cell; assay type: cell-based, human
T2 construct: expressed in transfected cells; host or cells: HCT116 (human colon adenocarcinoma-derived cell)
Method: (§4) An HCT116 cell (human colon adenocarcinoma-derived cell) having DNA in which an OsTIR1(WT) or OsTIR1(F74G) and an mAID-EGFP (green fluorescent protein)-NLS (nuclear localization signal) were encoded through a P2A sequence inserted onto a chromosome by a transposon (hereinafter, referred to as “OsTIR1(WT)/mAID-EGFP-NLS expressing cell” or “OsTIR1(F74G)/mAID-EGFP-NLS expressing cell”) was prepared (refer to FIG. 1).
(§5) The auxin analog (concentration in culture medium: 0, 200 μM) was added to the OsTIR1(F74G)/mAID-EGFP-NLS expressing cell and cultured for 24 hours. In addition, as a control, a cell containing an auxin added to the OsTIR1(WT)/mAID-EGFP-NLS expressing cell was also prepared.
(§6) After 24 hours from the addition of the auxin analog, the cells were collected, and FACS analysis was performed.
(§7) Furthermore, the same experiment was performed by adding 100 μM of an auxin to the OsTIR1(WT)/mAID-EGFP-NLS expressing cell, adding 1 μM of 5-Ph-IAA to the OsTIR1(F74G)/mAID-EGFP-NLS expressing cell, collecting the cells after four hours, and performing FACS analysis.
(§8) In order to compare OsTIR1(WT) and OsTIR1(F74G) in more detail, the degradation of the mAID-EGFP-NLS reporter was induced using IAA (auxin) and 5-Ph-IAA in different doses, respectively (refer to FIG. 10(A)). […] DC 50 values (concentrations for 50% degradation) were 300±30 nM and 0.45±0.01 nM in OsTIR1(WT) and OsTIR1(F74G), respectively, and it was confirmed that the system in which 5-Ph-IAA was used functioned at an approximately 670-times lower concentration compared with conventional auxin-inducible degron systems.
In order to investigate dynamics over time attributed to the removal of a target protein, samples after a lapse of time were taken, and the expression levels of the reporter were observed (refer to FIG. 10(B)). […]

[4] = biological target: T3, OsTIR1(F74G)/DHC1-mAID-Clover expressing cell (Oryza sativa subsp. japonica, UniProt Q7XVM8, F74G); test: Degradation induction test of DHC1 (microscopy, Western blotting); assay type: cell-based, human
T3 construct: expressed in transfected cells; host or cells: HCT116; OsTIR1(F74G) gene at the AAVS1 locus; endogenous DHC1 tagged by CRISPR/Cas9 homologous recombination
Method: A plasmid vector having mAID, clover and a neomycin resistance gene and having a homologous sequence with respect to a DHC1 gene so as to sandwich mAID and the neomycin resistance gene was introduced into the OsTIR1(WT)-expressing HCT116 cell or OsTIR1(F74G)-expressing HCT116 cell using a CRISPR/Cas9 system, and homologous recombination with the endogenous DHC1 gene was performed. Next, after selection by G418, the formed colony was dyed using crystal violet. “DHC1” is the abbreviation for dynein heavy chain 1.
A degradation induction test of DHC1 was performed using the HCT116 cell expressing OsTIR1(F74G) on which homologous recombination had been performed in the above-described section 2 (hereinafter, referred to as “OsTIR1(F74G)/DHC1-mAID-Clover expressing cell”).
The compound indicated by the formula (I-2) (also referred to as 5-Ph-IAA) was added to the OsTIR1(F74G)/DHC1-mAID-Clover expressing cell, and the appearance of the cell after 24 hours was observed (FIG. 4(A)).
Furthermore, the degradation of DHC1 was confirmed by Western blotting (FIG. 4(B)).
A CRISPR plasmid for adding a degron tag and two donors each having a neomycin-resistant marker or a hygromycin-resistant marker were transfected into a parent cell line constitutively expressing OsTIR1(WT or F74G) (refer to FIG. 14). In an OsTIR1(F74G) expressing cell, a colony was formed in the presence of G418 and hygromycin, and tags were added to DHC1 genes at both alleles (refer to FIG. 15(A)). In a cell expressing OsTIR1(WT), no colony was formed. […] This coincides with the fact that DHC1 is essential for the formation of a spindle that is formed during mitosis.

[5] = biological target: T4, SMC2, CTCF and POLR2A to which mAID is added (Oryza sativa subsp. japonica, UniProt Q7XVM8, F74G); test: Degradation of mAID fused SMC2, CTCF and POLR2A in HCT116 constitutively expressing OsTIR1(F74G); assay type: cell-based, human; conditions: 1 μM
T4 construct: expressed in transfected cells; host or cells: HCT116 constitutively expressing OsTIR1(F74G); endogenous genes tagged
Source text: Regarding aSMC2 condensin complex, a CTCF insulator protein or the maximum subunit of RNA polymerase 2 (POLR2A) in which it was difficult to produce an AID cell line using an HCT116 cell constantly expressing OsTIR1(WT), whether or not a cell line can be generated with a cell constitutively expressing OsTIR1(F74G) was examined.

[6] = biological target: T5, RAD21-mAID-Clover (RAD21-mAC) cell expressing OsTIR1(F74G) (Oryza sativa subsp. japonica, UniProt Q7XVM8, F74G); test: RAD21-mAC degradation in HCT116 cell expressing OsTIR1(F74G); assay type: cell-based, human
T5 construct: expressed in transfected cells; host or cells: human HCT116 constantly expressing OsTIR1(F74G); RAD21 tagged by genome editing
Method: (§9) A human HCT116 cell constantly expressing OsTIR1(F74G) was used as a material, an RAD21-mAID-Clover (RAD21-mAC) cell was generated by genome editing, and an effect of the addition of 5-Ph-IAA was confirmed. As shown in FIGS. 13(A) and (B), the expression level of RAD21-mAC was […] in a cell expressing OsTIR1(F74G) than in a cell expressing OsTIR1(WT) at 0 minutes before addition, and basal degradation was shown in conventional AID systems.

[7] = biological target: T6, OsTIR1(F74A)/mAID-EGFP-NLS expressing cell (Oryza sativa subsp. japonica, UniProt Q7XVM8, F74A); test: FACS analysis of mAID-EGFP-NLS reporter degradation in OsTIR1(F74A) expressing cell clones; assay type: cell-based, human
T6 construct: expressed in transfected cells
Method: Furthermore, the same experiment was also performed on three clones using an OsTIR1(F74A)/mAID-EGFP-NLS expressing cell.

[8] = system: HCT116 cell; test: Influence of 5-Ph-IAA treatment on HCT116 cell (cell cycle, colony formation); assay type: cell-based, human; conditions: 1 μM
Method: As shown in FIG. 9(A) in which the influence of the treatment with 1 μM of 5-Ph-IAA on the HCT116 cell was investigated, no influence was shown on the cell cycle. As shown in FIG. 9(B), no change in the colony formation efficiency was shown. It was confirmed that 5-Ph-IAA is an effective ligand and has no toxicity at 1 μM.

[9] = biological target: T7, mAID-EGFP-CENPH (Oryza sativa subsp. japonica, UniProt Q7XVM8, F74G); test: Western blotting of mAID-EGFP-CENPH degradation in HeLa cell (transposon vector + CRISPR-KO); assay type: cell-based, human; conditions: anti-CENPH antibody
T7 construct: P2A linker (self-cleaving; remnant); expressed in transfected cells; host or cells: HeLa; transposon vector plus CRISPR-KO vector
Source text: as §1, §2, §3

[10] = biological target: T8, OsTIR1(WT)/mAID-EGFP-NLS expressing cell (Oryza sativa subsp. japonica, UniProt Q7XVM8); test: FACS analysis of mAID-EGFP-NLS reporter degradation in OsTIR1(WT) expressing HCT116 cell (conventional system); assay type: cell-based, human
T8 construct: expressed in transfected cells; host or cells: HCT116 (human colon adenocarcinoma-derived cell)
Method: as §4, §5, §6, §7, §8
In order to investigate dynamics over time attributed to the removal of a target protein, samples after a lapse of time were taken, and the expression levels of the reporter were observed (refer to FIG. 10(B)).

[11] = biological target: T9, RAD21-mAID-Clover (RAD21-mAC) cell expressing OsTIR1(WT) (Oryza sativa subsp. japonica, UniProt Q7XVM8); test: RAD21-mAC degradation in HCT116 cell expressing OsTIR1(WT); assay type: cell-based, human; conditions: after the addition of a ligand
T9 construct: expressed in transfected cells; host or cells: RAD21-mAC cell expressing OsTIR1(WT) (HCT116 implied)
T9 sequence (Q7XVM8 1-575): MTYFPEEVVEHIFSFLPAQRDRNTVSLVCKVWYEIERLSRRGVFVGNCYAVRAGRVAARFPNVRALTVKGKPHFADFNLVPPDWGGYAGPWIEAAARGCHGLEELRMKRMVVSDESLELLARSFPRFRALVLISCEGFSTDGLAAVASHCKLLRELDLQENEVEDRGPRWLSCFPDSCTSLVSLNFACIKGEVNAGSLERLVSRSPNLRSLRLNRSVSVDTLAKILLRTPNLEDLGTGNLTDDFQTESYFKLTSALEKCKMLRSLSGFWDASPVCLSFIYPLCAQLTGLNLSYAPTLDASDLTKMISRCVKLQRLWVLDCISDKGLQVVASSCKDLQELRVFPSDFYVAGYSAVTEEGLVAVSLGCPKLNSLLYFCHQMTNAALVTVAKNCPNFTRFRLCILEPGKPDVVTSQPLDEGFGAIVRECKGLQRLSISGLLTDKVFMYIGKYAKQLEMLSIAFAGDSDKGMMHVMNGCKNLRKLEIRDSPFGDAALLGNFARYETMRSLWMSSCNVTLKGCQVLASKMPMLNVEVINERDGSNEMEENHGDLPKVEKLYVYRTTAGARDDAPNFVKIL
Method: as §9

O=C(O)Cc1c[nH]c2ccc(-c3ccccc3)cc12 [5-Ph-IAA, 5-phenyl-indole 3-acetic acid]
growth of mAID-introduced yeast strains ([1]; plates containing 5 μM, OsTIR1(F74G or F74A)): strong growth inhibition
degradation of mAID-EGFP-POLD1 by Western blotting [2]: degradation of mAID-EGFP-POLD1 was confirmed
effect of inducing the degradation of the mAID-EGFP-NLS reporter ([3]; 1 nM and 10 nM, compared with the other auxin analogs): stronger effect
degradation of mAID-EGFP-NLS reporter ([3]; 1 μM, four hours): efficiently degraded
half-life of reporter degradation ([3]; AID2 system, OsTIR1(F74G)): 62.3 ± 2.0 min
times lower concentration compared with conventional auxin-inducible degron systems ([3]; DC50 OsTIR1(WT)/IAA versus OsTIR1(F74G)/5-Ph-IAA): approximately 670 times
degradation of mAID-EGFP-NLS reporter in clones ([3]; OsTIR1(F74G) clones compared with OsTIR1(F74A) clone): sharper degradation
recovery of reporter expression after exchange to culture medium containing no 5-Ph-IAA ([3]; OsTIR1(F74G), after degradation induction): fully recovered after three hours
DC50 ([3]; read-out: DC 50 values (concentrations for 50% degradation), mAID-EGFP-NLS reporter, OsTIR1(F74G), HCT116): 0.45 ± 0.01 nM
cell cycle phenotype after DHC1-mAC degradation ([4]; 1 μM): arrested in mitosis
mitotic spindle formation after DHC1-mAC degradation ([4]; 1 μM): strong defect in mitotic spindle formation
degradation of DHC1-mAC ([4]; 1 μM, clone with tags at both alleles): more efficiently degraded
cell phenotype after DHC1 degradation ([4]; after 24 hours): accumulation of cells in the mitotic period was observed
degradation of DHC1-mAID-Clover fused protein (microscopy) ([4]; after 24 hours): degraded a DHC1-mAID-Clover fused protein
degradation of DHC1 by Western blotting ([4]; clones #1 to #3): degradation of DHC1 and mAID was confirmed
degradation of mAID fused targets (SMC2, CTCF, POLR2A) [5]: rapidly degraded
cell cycle of RAD21-mAC degraded cells [6]: arrested in the G2/M phase
sister chromatid cohesion of RAD21-mAC degraded cell [6]: profound defect
T1/2 of RAD21-mAC ([6]; after the addition of a ligand): 11.7 min
degradation of mAID-EGFP-NLS reporter in clones [7]: degradation was induced
colony formation efficiency [8]: no change
influence on the cell cycle [8]: no influence
toxicity [8]: no toxicity
degradation of mAID-EGFP-CENPH by Western blotting [9]: degradation of mAID-EGFP-CENPH was confirmed

O=C(O)Cc1c[nH]c2ccccc12 [IAA]
growth of mAID-introduced yeast strains ([1]; 500 μM, OsTIR1(WT and F74A)): growth suppression
degradation of mAID-EGFP-NLS reporter ([10]; 100 μM, four hours): the reporter was degraded
half-life of reporter degradation ([10]; conventional system, OsTIR1(WT)): 147.1 ± 12.5 min
DC50 ([10]; mAID-EGFP-NLS reporter, OsTIR1(WT), HCT116, read-out: DC 50 values (concentrations for 50% degradation)): 300 ± 30 nM
T1/2 of RAD21-mAC [11]: 26.5 min
